Assay results reported in ChEMBL document CHEMBL1121606, “Synthesis and beta-adrenergic blocking activity of new aliphatic oxime ethers” (J Med Chem, 1980).
Activity calls are given as the source filed them. No cut-off for these calls is given here.

Assays:
Assay type in all cases: functional, organism-based
Cavia porcellus [1] = organism: Cavia porcellus; experiment: The apparent pA2 value was measured for beta-2-adrenergic blocking activity on the trachea of guinea pig; Inactive at 3e-4
Cavia porcellus [2] = organism: Cavia porcellus; experiment: Antagonism of the isoprenaline-induced positive chronotropic effect on the atria of guinea pig at 3e-4 M/l; conditions: read-out: pA2 (converted)
Cavia porcellus [3] = organism: Cavia porcellus; experiment: Antagonism of the isoprenaline-induced positive chronotropic effect on the atria of guinea pig; Inactive at 1e-4 mol/L

SMILES	pA2 (Cavia porcellus [1])	Kb (Cavia porcellus [2])	pA2 (Cavia porcellus [3])
CC(C)NCC(O)CNC(C)C	inactive	200 µM	
CC(C)(C)NCC(O)CO (stereo not drawn)			inactive
